We go through 56 compounds from ChEMBL document CHEMBL1132104, “Synthesis and SAR of thioester and thiol inhibitors of IMP-1 metallo-beta-lactamase” (Bioorg Med Chem Lett, 1999).

This test is described as follows: Inhibitory activity against IMP-1 metallo-beta-lactamase (MBL).

Each structure is given as a SMILES string.

In general, IC50 refers to the concentration that inhibits the measured activity by half. A lower IC50 goes with inhibition by little substance. In the case of `C[C@@H](NC(=O)/C=C/c1ccccc1)C(=O)S[C@H](Cc1ccc(-c2ccccc2)cc1)C(=O)O`, 11 µM corresponded to half-maximal inhibition (IC50). In the case of `C[C@@H](NC(=O)CCCC(=O)O)C(=O)S[C@H](Cc1ccc(-c2ccccc2)cc1)C(=O)O`, the midpoint of inhibition, the IC50, lay at 91 µM. `C[C@@H](NC(=O)Cc1cccc2ccccc12)C(=O)S[C@H](Cc1ccc(-c2ccccc2)cc1)C(=O)O` registered an IC50 of 12 µM. `C/C=C/C(=O)N[C@H](C)C(=O)S[C@H](Cc1ccc(-c2ccccc2)cc1)C(=O)O` displayed an IC50 of 33 µM. With `O=C(S[C@@H](Cc1ccc(-c2ccccc2)cc1)C(=O)O)c1ccccc1`, the IC50 was 120 µM. As to `C[C@@H](NC(=O)Cc1ccc(O)cc1)C(=O)S[C@H](Cc1ccc(-c2ccccc2)cc1)C(=O)O`, the half-maximal inhibitory concentration (IC50) was determined as 3.1 µM. The compound `C[C@@H](NC(=O)Cc1ccccc1OCc1ccccc1)C(=O)S[C@H](Cc1ccc(-c2ccccc2)cc1)C(=O)O` had a half-maximal inhibitory concentration (IC50) of 24 µM. The compound `COc1cccc(C(=O)N[C@H](C)C(=O)S[C@H](Cc2ccc(-c3ccccc3)cc2)C(=O)O)c1` gave a concentration for half-maximal inhibition (IC50) of 38 µM.

The compound `CC(=O)N[C@H](C)C(=O)S[C@H](Cc1ccc2oc3ccccc3c2c1)C(=O)O` showed an IC50 of 2 µM. Take `C[C@@H](NC(=O)Cc1ccccc1)C(=O)S[C@H](Cc1ccc(-c2ccccc2)cc1)C(=O)O`: half-maximal inhibition (IC50) was put at 5.8 µM. `CCCCCC(=O)N[C@H](C)C(=O)S[C@H](Cc1ccc(-c2ccccc2)cc1)C(=O)O` gave a half-inhibitory concentration (IC50) of 13 µM.

Consider `C[C@@H](NC(=O)c1ccccc1)C(=O)S[C@H](Cc1ccc(-c2ccccc2)cc1)C(=O)O`, for which 3.6 µM corresponded to half-maximal inhibition (IC50). The compound `C[C@@H](NC(=O)c1ccccc1)C(=O)S[C@H](Cc1ccc2oc3ccccc3c2c1)C(=O)O` registered an IC50 of 1.5 µM. Regarding `COc1ccc(CC(=O)N[C@H](C)C(=O)S[C@H](Cc2ccc(-c3ccccc3)cc2)C(=O)O)cc1`, half-maximal inhibition (IC50) required 12 µM.

In turn, `C[C@@H](NC(=O)c1ccccc1)C(=O)SCC(=O)O` gave a 50% inhibitory concentration (IC50) of 240 µM. Consider `C[C@@H](NC(=O)COc1ccccc1)C(=O)S[C@H](Cc1ccc(-c2ccccc2)cc1)C(=O)O`, for which the concentration for half-maximal inhibition (IC50) worked out at 1 µM.

For `O=C(S[C@H](Cc1ccc(-c2ccccc2)cc1)C(=O)O)c1ccccc1`, the IC50 is 0.00041 µM. In the case of `CC(=O)N[C@H](C)C(=O)S[C@H](Cc1ccc(-c2ccccc2)cc1)C(=O)O`, the concentration for half-maximal inhibition (IC50) was 18 µM. In the case of `COc1cc(OC)c(C(=O)N[C@H](C)C(=O)S[C@H](Cc2ccc(-c3ccccc3)cc2)C(=O)O)c(OC)c1`, the concentration for half-maximal inhibition (IC50) came out at 46 µM. This IC50 is about 2.6-fold higher than that of the compound before. The same measure for `C[C@@H](NC(=O)c1ccccc1)C(=O)S[C@@H](Cc1ccc2oc3ccccc3c2c1)C(=O)O`: 430 µM; for `O=C(S[C@@H](Cc1ccccc1)C(=O)O)c1ccccc1`: 2.5 µM. In turn, `C[C@@H](NC(=O)c1cccc(N(C)C)c1)C(=O)S[C@H](Cc1ccc(-c2ccccc2)cc1)C(=O)O` yielded an IC50 of 15 µM. As for `C[C@@H](NC(=O)CCC(=O)O)C(=O)S[C@H](Cc1ccc(-c2ccccc2)cc1)C(=O)O`, the figure is 4.7 µM; as for `CC(=O)S[C@H](Cc1ccc(-c2ccccc2)cc1)C(=O)O`, 0.084 µM. `C[C@@H](NC(=O)CNC(=O)c1ccccc1)C(=O)S[C@H](Cc1ccc(-c2ccccc2)cc1)C(=O)O` yielded an IC50 of 50 µM. Against the preceding compound, the IC50 is about 600-fold higher. `C=CCOC(=O)N[C@H](C)C(=O)S[C@H](Cc1ccc(-c2ccccc2)cc1)C(=O)O` displayed an IC50 of 4.4 µM.

The compound `CC(C)CC(=O)N[C@H](C)C(=O)S[C@H](Cc1ccc(-c2ccccc2)cc1)C(=O)O` registered an IC50 of 5.3 µM.

`C[C@@H](NC(=O)CSCC(=O)O)C(=O)S[C@H](Cc1ccc(-c2ccccc2)cc1)C(=O)O` came in with a concentration for half-maximal inhibition (IC50) of 13 µM. Regarding `C[C@@H](NC(=O)c1ccccc1)C(=O)S[C@H](Cc1ccccc1)C(=O)O`, the IC50 turned out to be 20 µM. For the compound `CC(=O)S[C@@H](Cc1ccc(-c2ccccc2)cc1)C(=O)O`, the IC50 is 74 µM.

`CCCC(=O)N[C@H](C)C(=O)S[C@H](Cc1ccc(-c2ccccc2)cc1)C(=O)O` displayed an IC50 of 9.3 µM. Compound `CCCCC(=O)N[C@H](C)C(=O)S[C@H](Cc1ccc(-c2ccccc2)cc1)C(=O)O` came in with an IC50 of 4.8 µM. Turning to `C[C@@H](NC(=O)CCc1ccccc1)C(=O)S[C@H](Cc1ccc(-c2ccccc2)cc1)C(=O)O`, the half-inhibitory concentration (IC50) is 15 µM. Compound `CC(=O)S[C@@H](Cc1ccccc1)C(=O)O` came in with an IC50 of 740 µM. This IC50 is about 49-fold higher than that of the compound before. In turn, `CC(C)C(=O)N[C@H](C)C(=O)S[C@H](Cc1ccc(-c2ccccc2)cc1)C(=O)O` had a concentration for half-maximal inhibition (IC50) of 9.7 µM. In turn, `C=CCOC(=O)N[C@H](C)C(=O)S[C@H](Cc1ccccc1)C(=O)O` showed a half-inhibitory concentration (IC50) of 64 µM. The compound `O=C(O)[C@H](S)Cc1ccc(-c2ccccc2)cc1` gave an IC50 of 0.057 µM. In the case of `CC(=O)S[C@H](Cc1ccc2oc3ccccc3c2c1)C(=O)O`, the half-inhibitory concentration (IC50) came out at 0.045 µM. This IC50 and that of the compound before are within 1.5-fold of each other. In the case of `C=CCOC(=O)N[C@H](C)C(=O)S[C@H](Cc1ccc2oc3ccccc3c2c1)C(=O)O`, the concentration for half-maximal inhibition (IC50) worked out at 2.9 µM. In turn, `CC(=O)S[C@@H](Cc1ccc2oc3ccccc3c2c1)C(=O)O` returned an IC50 of 160 µM. The compound `O=C(S[C@H](Cc1ccc2oc3ccccc3c2c1)C(=O)O)c1ccccc1` had a 50% inhibitory concentration (IC50) of 0.0013 µM. `CC(=O)S[C@H](Cc1ccccc1)C(=O)O`: the midpoint of inhibition, the IC50, lay at 12 µM. In turn, `O=C(O)[C@@H](S)Cc1ccc(-c2ccccc2)cc1` gave a concentration for half-maximal inhibition (IC50) of 1.2 µM. This IC50 lies about 10-fold lower than the previous one. Turning to `O=C(S[C@H](Cc1ccccc1)C(=O)O)c1ccccc1`, 0.064 µM corresponded to half-maximal inhibition (IC50). Consider `O=C(S[C@@H](Cc1ccc2oc3ccccc3c2c1)C(=O)O)c1ccccc1`, for which the midpoint of inhibition, the IC50, lay at 49 µM. In turn, `O=C(O)[C@@H](S)Cc1ccccc1` returned an IC50 of 3.7 µM. Compound `O=C(O)[C@H](S)Cc1ccc2oc3ccccc3c2c1` displayed an IC50 of 0.023 µM.

With `C[C@@H](NC(=O)c1ccc2ccccc2c1)C(=O)S[C@H](Cc1ccc(-c2ccccc2)cc1)C(=O)O`, the half-inhibitory concentration (IC50) was 18 µM.

In turn, `CCC(=O)N[C@H](C)C(=O)S[C@H](Cc1ccc(-c2ccccc2)cc1)C(=O)O` displayed an IC50 of 9.5 µM. `CC(=O)N[C@H](C)C(=O)S[C@H](Cc1ccccc1)C(=O)O`: the IC50 came to 63 µM.

`C[C@@H](NC(=O)Cc1cccnc1)C(=O)S[C@H](Cc1ccc(-c2ccccc2)cc1)C(=O)O` had a half-inhibitory concentration (IC50) of 32 µM.

For the compound `C[C@@H](NC(=O)Cc1ccc(N(C)C)cc1)C(=O)S[C@H](Cc1ccc(-c2ccccc2)cc1)C(=O)O`, the half-inhibitory concentration (IC50) is 55 µM. For the compound `C[C@@H](NC(=O)CCC(=O)c1ccccc1)C(=O)S[C@H](Cc1ccc(-c2ccccc2)cc1)C(=O)O`, it took 0.25 µM to reach half-maximal inhibition (IC50). The same measure for `COc1ccc(C(=O)N[C@H](C)C(=O)S[C@H](Cc2ccc(-c3ccccc3)cc2)C(=O)O)cc1`: 29 µM; for `O=C(O)[C@H](S)Cc1ccccc1`: 0.086 µM; for `O=C(O)[C@@H](S)Cc1ccc2oc3ccccc3c2c1`: 0.25 µM.
